In patent US20020028942A1, “Novel process and compound” (priority 1997, published 2002):
Counter-ions that a name gives are not always drawn.

Experiments:
[1] = Stability of aqueous solutions; format: physicochemical
Text: The feedstock for freeze-drying may be prepared conveniently by, for example, dissolution of paroxetine free base in aqueous hydrochloric acid, although other solid forms of paroxetine hydrochloride may also be dissolved. For example, the feedstock may be prepared by dissolving amorphous paroxetine hydrochloride or a crystalline paroxetine hydrochloride anhydrate, hydrate or solvate in suitable solvent. The solvent used may be pure water or a mixture of water with compatible organic solvents. […] Suitable concentrations of paroxetine hydrochloride for freeze-drying are in the range 1 to 30% by weight, preferably in the range 5% to 20% by weight.
Processing at elevated temperature may be employed to reduce the risk of unwanted crystallisation during processing but is not essential.

[2] = Solubility / dissolution in water; format: physicochemical
Text: Paroxetine hydrochloride has been described in the literature as a crystalline hemihydrate (see EP-A-0223403 of Beecham Group) and as various crystalline anhydrate forms (see WO96/24595 of SmithKline Beecham plc). These known forms are not ideally suited for all pharmaceutical applications. […] Furthermore, liquids can be dispensed into unit dosages more conveniently and precisely than solids, and the use of liquid feedstocks reduces hazards associated with dust. In addition, the known solid forms of paroxetine hydrochloride are relatively insoluble and are slow to dissolve completely.
The product is homogenous without any further processing and is obtained in 100% yield, a higher yield than is possible in any crystallisation process.

[3] = known forms, well documented in the literature; cited from earlier work

**Q.** What does the source list for Fc1ccc([C@@H]2CCNC[C@H]2COc2ccc3c(c2)OCO3)cc1 [freeze-dried paroxetine hydrochloride, paroxetine hydrochloride]?
**A.** stability of reconstituted aqueous solution ([1]; freeze-dried product dispersed in water, concentration for parenteral dosage, supersaturated with respect to hemihydrate): sufficiently stable for liquid dispensing; dissolution of the freeze-dried product [2]: dissolves quickly and completely

**Q.** For Fc1ccc([C@@H]2CCNC[C@H]2COc2ccc3c(c2)OCO3)cc1 [paroxetine hydrochloride hemihydrate, Paroxetine hydrochloride hemihydrate], which “stability of aqueous solution of a concentration suitable for freeze-drying” value ([1]; highly supersaturated with respect to paroxetine hydrochloride hemihydrate) is on record?
**A.** sufficiently stable for sterile filtration and liquid processing

**Q.** With Fc1ccc([C@@H]2CCNC[C@H]2COc2ccc3c(c2)OCO3)cc1 [paroxetine hydrochloride, (−)trans isomer of 4-(4′-fluorophenyl)-3-(3′,4′-methylenedioxyphenoxymethyl)-piperidine] as the molecule, how does the solubility in water [3] read?
**A.** low solubility in water

**Q.** What about the “stability of aqueous solution” value ([1]; ambient temperature, once dissolved, in the absence of seeds of a crystalline form) of the same molecule?
**A.** stable at ambient temperature for many days
